Laboratory results as given in paper PMC6150173, “Tryptophan-Containing Cyclic Decapeptides with Activity against Plant Pathogenic Bacteria” (Molecules : A Journal of Synthetic Chemistry and Natural …, 2017).
Where “and” joins values, the source holds several entries; their conditions need not be identical. Equal values may be shown once. Peptide text beside a SMILES is read from it.

Columns and labels:
Type in all cases: cell-based
[1] = tested on: erythrocyte suspensions of human blood; assay: Hemolytic activity, hemoglobin release; conditions: human blood erythrocytes 5% v/v, absorbance 540 nm, percentage compared to melittin, three replicates; for Hemolysis (%) at 50 µM: peptide 50 μM (table prints 50 µM); for Hemolysis (%) at 125 µM: peptide 125 μM (table prints 125 µM)
Description: The hemolytic activity of the compounds was evaluated at 50 and 125 μM by determining hemoglobin release from erythrocyte suspensions of human blood (5% v/v) (Oxoid) using absorbance at 540 nm, as previously described. Three replicates for each peptide concentration were used.

[2] = tested on: Erwinia amylovora PMV6076; assay: Antibacterial activity (MIC), in vitro growth inhibition; conditions: Table S1, MIC range
Procedure, shortened: (§1)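 MIC determined by in vitro growth inhibition across 0.8, 1.6, 3.1, 6.2, 12.5, 25 and 50 μM peptide. Strains tested: E. amylovora PMV6076, P. syringae pv. syringae EPS94 and X. axonopodis pv. vesicatoria 2133-2.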

[3] = tested on: Pseudomonas syringae pv. syringae EPS94; assay: as above; conditions: Table S1, MIC range
Procedure, shortened: as §1

[4] = tested on: Xanthomonas axonopodis pv. vesicatoria 2133-2; conditions: Table S1, MIC range
Procedure, shortened: as §1

Row | SMILES | Hemolysis (%) at 50 µM [1] [%] | Hemolysis (%) at 125 µM [1] | MIC Ea [2] [µM] | MIC Pss [3] [µM] | MIC Xav [4] [µM]
1 | CC(C)C[C@@H]1NC(=O)[C@H](CCCCN)NC(=O)[C@H](CCCCN)NC(=O)[C@H](Cc2c[nH]c3ccccc23)NC(=O)[C@H](CCCCN)NC(=O)[C@H](CCCCN)NC(=O)[C@H](CCCCN)NC(=O)[C@H](CC(C)C)NC(=O)[C@H](CC(C)C)NC(=O)[C@H](CCC(N)=O)NC1=O [BPC098W, c(LLKKKWKKLQ)] (cyclo(KKKWKKLQLL)) | 12 | 18% and below 20% | 12.5 to 25 | 3.1 to 6.2 | 1.6 to 3.1
2 | CC(C)C[C@@H]1NC(=O)[C@H](CCCCN)NC(=O)[C@H](CCCCN)NC(=O)[C@H](CCCCN)NC(=O)[C@H](CCC(N)=O)NC(=O)[C@H](CC(C)C)NC(=O)[C@H](CC(C)C)NC(=O)[C@H](CCCCN)NC(=O)[C@H](Cc2c[nH]c3ccccc23)NC(=O)[C@H](CCCCN)NC1=O [BPC062W, c(KKKLKWKLLQ)] (cyclo(KKKLKWKLLQ)) | 3 | 4% | 12.5 to 25 | 3.1 to 6.2 | 6.2 to 12.5
3 | CC(C)C[C@@H]1NC(=O)[C@H](CCCCN)NC(=O)[C@H](CCC(N)=O)NC(=O)[C@H](CCCCN)NC(=O)[C@H](CCCCN)NC(=O)[C@H](CC(C)C)NC(=O)[C@H](Cc2c[nH]c3ccccc23)NC(=O)[C@H](CC(C)C)NC(=O)[C@H](CCCCN)NC(=O)[C@H](CCCCN)NC1=O [BPC132W, c(KLKKLWLKKQ)] (cyclo(KKLWLKKQKL)) | 5 | 8% and below 20% | 12.5 to 25 | 3.1 to 6.2 | 1.6 to 3.1
4 | CC(C)C[C@@H]1NC(=O)[C@H](CCCCN)NC(=O)[C@H](Cc2c[nH]c3ccccc23)NC(=O)[C@H](CCCCN)NC(=O)[C@H](CC(C)C)NC(=O)[C@H](CC(C)C)NC(=O)[C@H](CCCCN)NC(=O)[C@H](CCCCN)NC(=O)[C@H](CCC(N)=O)NC(=O)[C@H](CCCCN)NC1=O [BPC118W, c(KKLLKWKLKQ)] (cyclo(KKLLKWKLKQ)) | 4 | 4% | 12.5 to 25 | 6.2 to 12.5 | 12.5 to 25
5 | CC(C)C[C@@H]1NC(=O)[C@H](CCC(N)=O)NC(=O)[C@H](CCCCN)NC(=O)[C@H](CCCCN)NC(=O)[C@H](CC(C)C)NC(=O)[C@H](Cc2c[nH]c3ccccc23)NC(=O)[C@H](CCCCN)NC(=O)[C@H](CCCCN)NC(=O)[C@H](CCCCN)NC(=O)[C@H](CC(C)C)NC1=O [BPC146W, c(LLKKKWLKKQ)] (cyclo(KKKWLKKQLL)) | 4 | 7% | 25 to 50 | 3.1 to 6.2 | 3.1 to 6.2
6 | CC(C)C[C@@H]1NC(=O)[C@H](CCCCN)NC(=O)[C@H](CCC(N)=O)NC(=O)[C@H](CCCCN)NC(=O)[C@H](CC(C)C)NC(=O)[C@H](CC(C)C)NC(=O)[C@H](Cc2c[nH]c3ccccc23)NC(=O)[C@H](CCCCN)NC(=O)[C@H](CCCCN)NC(=O)[C@H](CCCCN)NC1=O [BPC106W, c(KLKKKWLLKQ)] (cyclo(KKKWLLKQKL)) | 2 | 2% | 25 to 50 | 3.1 to 6.2 | 3.1 to 6.2
7 | CC(C)C[C@@H]1NC(=O)[C@H](CCCCN)NC(=O)[C@H](CCCCN)NC(=O)[C@H](Cc2c[nH]c3ccccc23)NC(=O)[C@H](CCCCN)NC(=O)[C@H](CC(C)C)NC(=O)[C@H](CC(C)C)NC(=O)[C@H](CC(C)C)NC(=O)[C@H](CCCCN)NC(=O)[C@H](CCC(N)=O)NC1=O [BPC184W, c(KLLLKWKKLQ)] (cyclo(KKLQKLLLKW)) | 22 | 32% | 25 to 50 | 3.1 to 6.2 | 1.6 to 3.1
8 | CC(C)C[C@@H]1NC(=O)[C@H](CCC(N)=O)NC(=O)[C@H](CCCCN)NC(=O)[C@H](CCCCN)NC(=O)[C@H](CC(C)C)NC(=O)[C@H](Cc2c[nH]c3ccccc23)NC(=O)[C@H](CC(C)C)NC(=O)[C@H](CCCCN)NC(=O)[C@H](CCCCN)NC(=O)[C@H](CCCCN)NC1=O [BPC134W, c(LKKKLWLKKQ)] (cyclo(KKKLWLKKQL)) | 3 | 4% | 25 to 50 | 6.2 to 12.5 | 3.1 to 6.2
9 | CC(C)C[C@@H]1NC(=O)[C@H](CCCCN)NC(=O)[C@H](CCCCN)NC(=O)[C@H](Cc2c[nH]c3ccccc23)NC(=O)[C@H](CC(C)C)NC(=O)[C@H](CCCCN)NC(=O)[C@H](CC(C)C)NC(=O)[C@H](CCCCN)NC(=O)[C@H](CCCCN)NC(=O)[C@H](CCC(N)=O)NC1=O [BPC082W, c(KKLKLWKKLQ)] (cyclo(KKLKLWKKLQ)) | 26 | 34% | 12.5 to 25 | 6.2 to 12.5 | 1.6 to 3.1
10 | CC(C)C[C@@H]1NC(=O)[C@H](CCC(N)=O)NC(=O)[C@H](CCCCN)NC(=O)[C@H](CC(C)C)NC(=O)[C@H](CCCCN)NC(=O)[C@H](Cc2c[nH]c3ccccc23)NC(=O)[C@H](CCCCN)NC(=O)[C@H](CC(C)C)NC(=O)[C@H](CCCCN)NC(=O)[C@H](CCCCN)NC1=O [BPC120W, c(LKKLKWKLKQ)] (cyclo(KKLKWKLKQL)) | 6 | 9% and below 20% | 12.5 to 25 | 3.1 to 6.2 | 1.6 to 3.1
11 | CC(C)C[C@@H]1NC(=O)[C@H](CCCCN)NC(=O)[C@H](CCCCN)NC(=O)[C@H](CCC(N)=O)NC(=O)[C@H](CCCCN)NC(=O)[C@H](CC(C)C)NC(=O)[C@H](CC(C)C)NC(=O)[C@H](Cc2c[nH]c3ccccc23)NC(=O)[C@H](CCCCN)NC(=O)[C@H](CCCCN)NC1=O [BPC104W, c(KKLKKWLLKQ)] (cyclo(KKLKKWLLKQ)) | 2 | 3% | 12.5 to 25 | 6.2 to 12.5 | 6.2 to 12.5
12 | CC(C)C[C@@H]1NC(=O)[C@H](CCC(N)=O)NC(=O)[C@H](CCCCN)NC(=O)[C@H](CCCCN)NC(=O)[C@H](CC(C)C)NC(=O)[C@H](Cc2c[nH]c3ccccc23)NC(=O)[C@H](CCCCN)NC(=O)[C@H](CC(C)C)NC(=O)[C@H](CCCCN)NC(=O)[C@H](CCCCN)NC1=O [BPC140W, c(LKKLKWLKKQ)] (cyclo(KKLKWLKKQL)) | 31 | 37% | 12.5 to 25 | 6.2 to 12.5 | 3.1 to 6.2
13 | CC(C)C[C@@H]1NC(=O)[C@H](CCCCN)NC(=O)[C@H](CCCCN)NC(=O)[C@H](CCC(N)=O)NC(=O)[C@H](CCCCN)NC(=O)[C@H](CCCCN)NC(=O)[C@H](CC(C)C)NC(=O)[C@H](Cc2c[nH]c3ccccc23)NC(=O)[C@H](CC(C)C)NC(=O)[C@H](CCCCN)NC1=O [BPC130W, c(KKLKLWLKKQ)] (cyclo(KKLKLWLKKQ)) | 1 | 2% | 12.5 to 25 | 6.2 to 12.5 | 1.6 to 3.1
14 | CC(C)C[C@@H]1NC(=O)[C@H](CCC(N)=O)NC(=O)[C@H](CC(C)C)NC(=O)[C@H](CC(C)C)NC(=O)[C@H](CCCCN)NC(=O)[C@H](Cc2c[nH]c3ccccc23)NC(=O)[C@H](CCCCN)NC(=O)[C@H](CCCCN)NC(=O)[C@H](CCCCN)NC(=O)[C@H](CCCCN)NC1=O [BPC068W, c(LKKKKWKLLQ)] (cyclo(KKKKWKLLQL)) | 6 | 7% | 25 to 50 | 6.2 to 12.5 | 1.6 to 3.1
15 | CC(C)C[C@@H]1NC(=O)[C@H](CCC(N)=O)NC(=O)[C@H](CC(C)C)NC(=O)[C@H](CCCCN)NC(=O)[C@H](CCCCN)NC(=O)[C@H](Cc2c[nH]c3ccccc23)NC(=O)[C@H](CC(C)C)NC(=O)[C@H](CCCCN)NC(=O)[C@H](CCCCN)NC(=O)[C@H](CCCCN)NC1=O [BPC086W, c(LKKKLWKKLQ)] (cyclo(KKKLWKKLQL)) | 4 | 8% and ≤ 8% | 6.2 to 12.5 | 3.1 to 6.2 | 0.8 to 1.6
16 | CC(C)C[C@@H]1NC(=O)[C@H](CCCCN)NC(=O)[C@H](CCCCN)NC(=O)[C@H](CCC(N)=O)NC(=O)[C@H](CC(C)C)NC(=O)[C@H](CCCCN)NC(=O)[C@H](CCCCN)NC(=O)[C@H](Cc2c[nH]c3ccccc23)NC(=O)[C@H](CCCCN)NC(=O)[C@H](CCCCN)NC1=O [BPC194W, c(KKLKKWKKLQ)] (cyclo(KKLKKWKKLQ)) | 3 | 5% | 12.5 to 25 | 12.5 to 25 | 6.2 to 12.5
17 | CC(C)C[C@@H]1NC(=O)[C@H](CCCCN)NC(=O)[C@H](CCCCN)NC(=O)[C@H](CCC(N)=O)NC(=O)[C@H](CCCCN)NC(=O)[C@H](CCCCN)NC(=O)[C@H](CC(C)C)NC(=O)[C@H](Cc2c[nH]c3ccccc23)NC(=O)[C@H](CCCCN)NC(=O)[C@H](CC(C)C)NC1=O [BPC136W, c(KKLLKWLKKQ)] (cyclo(KKLLKWLKKQ)) | 1 | 2% | 6.2 to 12.5 | 6.2 to 12.5 | 3.1 to 6.2
